Results from patent US20060281813A1, “Methods of treating hyperproliferative cell disorders” (priority 2003, published 2006).
Where “and” joins values, the source holds several entries; their conditions need not be identical. Equal entries are not always repeated. Where two headings read alike, the source gives them in different places.

Legend:
[1] = system: advanced head and neck cancer; assay: Example 5: patients with advanced head and neck cancer; type: in vivo, human; conditions: oral 100 mg/square meter with oral IRESSA or intravenous C-225
Text: Current systemic chemotherapy regimens are unable to prolong survival of patients with advanced head and neck cancer.

[2] = system: retinoid receptor subtype; conditions: competition with all-trans RA; cited from earlier work
lung cancer [3] = assay: Example 7: lung cancer patients with disease progression on IRESSA alone; type: in vivo, human; conditions: added to IRESSA, oral 100 mg/square meter, optionally calcitriol 0.1-1 mcg per day
lung cancer [4] = assay: Example 6: patients with lung cancer; type: in vivo, human; conditions: oral 100 mg/square meter with oral IRESSA
[5] = system: breast cancer, prostate cancer or leukemia; assay: Example 4: patients with breast cancer, prostate cancer or leukemia; type: in vivo, human; conditions: oral 100 mg/square meter with oral IRESSA
[6] = system: non small cell lung cancer; assay: Example 2: patient with non small cell lung cancer; type: in vivo, human
Description: A patient suffering from non small cell lung cancer was treated with IRESSA® (250 mg per day) for two months. The disease progressed during the treatment and thae patient was continued on IRESSA® (250 mg per day) with daily dosage of 4-oxo-retinol (75 mg per day) for two months. The disease became stable and the patient continued taking IRESSA® (250 mg per day) for 4 more months without 4-oxo-retinol with a stale disease.

[7] = system: refractory/progressive lung cancer; conditions: single agent; cited from earlier work
colorectal cancer = conditions: cited from earlier work
ER+ or ER− tumor lines = conditions: cited from earlier work
[8] = system: cutaneous T-cell lymphoma; conditions: single patient, oral, with the VD analog calcitriol; cited from earlier work
Xenopus laevis = Xenopus laevis system; cited from earlier work
small cell lung cancer = assay: Example 8: small cell lung cancer patients with disease progression on IRESSA alone; type: in vivo, human; conditions: added to IRESSA about 250-500 mg per day; oral about 100 to 500 mg per day
[9] = cited from earlier work
[10] = cited from earlier work; for peak 1,25-dihydroxyvitamin D serum concentration: healthy volunteers
[11] = system: F9 embryonal mouse teratocarcinoma cells; conditions: all-trans RA-treated, differentiating F9 cells, 18 hour period; cited from earlier work
[12] = tumors capable of producing 4-oxo-retinol
[13] = tumors that don't produce 4-oxo-retinol
[14] = 4 mcg per day for 4 days, postmenopausal women
[15] = up to 2.7 mcg/day for 7 to 15 days, normal volunteers
[16] = up to 32 mcg/day for 3 months, patients with osteopetrosis

In the case of `CC1=C(/C=C/C(C)=C/C=C/C(C)=C/CO)C(C)(C)CCC1O` (centres unmarked) [4-hydroxy-retinol], the “survival rate versus IRESSA or C-225 alone” value [1] is given as “better survival rate”, the “displacement of all-trans RA” value [2] is given as “Neither compound efficiently displaced all-trans RA” and the tumor burden (lung cancer [3]) is given as “reduced tumor burden”. For the same molecule, the “tumor burden versus IRESSA alone” value (lung cancer [4]) was “reduced tumor burden” and the “tumor burden versus IRESSA alone” value [5] was “reduced tumor burden”.

For `COc1cc2ncnc(Nc3ccc(F)c(Cl)c3)c2cc1OCCCN1CCOCC1` [IRESSA®, gefitinib], the disease course ([6]; 250 mg per day alone for two months) is given as “progressed”, the disease course ([6]; 250 mg per day for 4 more months without 4-oxo-retinol) is given as “stale disease” and the “overall rate of response” value [7] is given as 10-15%.

For `CCc1c2c(nc3ccc(OC(=O)N4CCC(N5CCCCC5)CC4)cc13)-c1cc3c(c(=O)n1C2)COC(=O)[C@]3(O)CC` [IRITONECAN®], the single-agent activity (colorectal cancer) is given as “significant single-agent activity”.

For `CC1=C(/C=C/C(C)=C/C=C/C(C)=C/C(=O)Nc2ccc(O)cc2)C(C)(C)CCC1` [N-(4-hydroxyphenyl)retinamide], the growth inhibition (ER+ or ER− tumor lines; [12]) is listed as “growth inhibitory” and the growth inhibition (ER+ or ER− tumor lines; [13]) is listed as “lack growth inhibitory effects”.

In the case of `COc1cc(C)c(/C=C/C(C)=C/C=C/C(C)=C/C(=O)O)c(C)c1C` [acitretin], the clinical response [8] is listed as “complete remission”.

For `CC1=C(/C=C/C(C)=C/C=C/C(C)=C/C(=O)O)C(C)(C)CCC1` [all-trans RA, all-trans-retinoic acid], the growth inhibition (ER+ or ER− tumor lines; [12]) is listed as “growth inhibitory”, the growth inhibition (ER+ or ER− tumor lines; [13]) is listed as “lack growth inhibitory effects” and the “ED50, teratogenicity” value (Xenopus laevis) is listed as ~0.1 µM.

For `C=C(c1ccc(C(=O)O)cc1)c1cc2c(cc1C)C(C)(C)CCC2(C)C` [bexarotene], the disease course (small cell lung cancer) was “stable disease or a reduced tumor burden”.

In the case of `C=C1/C(=C\C=C2/CCC[C@]3(C)[C@@H]([C@H](C)CCCC(C)(C)O)CC[C@@H]23)C[C@@H](O)C[C@@H]1O` [calcitriol], the hypercalcemia [9, 14] is given as “no clinically significant hypercalcemia”, the “patients with serum calcium above 10.8” value [9, 14] is given as “Four of the 27” and the urinary calcium excretion [9, 14] is given as “increased”. For the same molecule, the urinary hydroxyproline excretion [9, 14] was “no increase”, the “dose tolerated without hypercalcemia” value ([9]; given intermittently) was ≤ 0.48 µg/kg and the “duration of hypercalcemic effect” value ([9]; in vivo) was 3 to 5 days. For the same molecule, the “time of maximal hypercalcemic effect” value ([9]; in vivo) was 10 h, the serum calcium ([9]; single oral dose of 4 mcg, healthy volunteers) was “no elevation” and the “calcium absorption and excretion” value [9, 15] was “increased”. For the same molecule, the serum calcium [9, 15] was “no significant elevations”, the “patients with elevation in serum calcium” value ([9]; up to 3 mcg/day for 6-12 days, low calcium diet) was “None of the patients” and the hypercalcemia [9, 16] was “no hypercalcemia”. The “peak 1,25-dihydroxyvitamin D serum concentration” value ([10]; 2 mcg single oral dose) was 0.235 nM and 0.351 nM, the serum half life ([10]; in vivo) was 3 to 6 h and the “time to peak serum concentration” value ([10]; in vivo) was 2 h. The “peak 1,25-dihydroxyvitamin D serum concentration” value ([10]; single oral dose of 4 mcg) was 0.42 nM, the “stable 1,25-dihydroxyvitamin D serum levels” value ([10]; up to 3 mcg/day for 6-12 days, normal volunteers) was 0.184 to 0.235 nM and the “peak of stable serum levels of 1,25-dihydroxyvitamin D” value [10, 16] was 2.32 nM.

For `CC1=C(/C=C/C(C)=C/C=C/C(C)=C/CO)C(C)(C)CCC1` [retinol, Retinol], the “share of total retinol metabolized to 4-hydroxy-retinol and then 4-oxo-retinol” value [11] is given as 10-15%.
